Assay results as given in patent US9040713B2, “Methods of managing blood sugar levels and compositions related thereto” (EMORY UNIVERSITY, priority 2010, dated 2015).

Legend:
[1] = biological target: MET (Homo sapiens, UniProt P08581); assay: RTK kinase profile screen assay; type: biochemical; details: 10 μM
[2] = biological target: T1, IR-EGFR (Homo sapiens, UniProt P00533+P06213); assay: His-tagged chimaeric receptor phosphorylation in CHO cells; type: cell-based; details: 5 μM, 30 min
T1 construct: the cDNA encoding extracellular IR was fused to intracellular IGFR or EGFR; expressed in transfected cells; host or cells: CHO
T1 sequence (P00533 669-1210 limits assumed, one chain of several): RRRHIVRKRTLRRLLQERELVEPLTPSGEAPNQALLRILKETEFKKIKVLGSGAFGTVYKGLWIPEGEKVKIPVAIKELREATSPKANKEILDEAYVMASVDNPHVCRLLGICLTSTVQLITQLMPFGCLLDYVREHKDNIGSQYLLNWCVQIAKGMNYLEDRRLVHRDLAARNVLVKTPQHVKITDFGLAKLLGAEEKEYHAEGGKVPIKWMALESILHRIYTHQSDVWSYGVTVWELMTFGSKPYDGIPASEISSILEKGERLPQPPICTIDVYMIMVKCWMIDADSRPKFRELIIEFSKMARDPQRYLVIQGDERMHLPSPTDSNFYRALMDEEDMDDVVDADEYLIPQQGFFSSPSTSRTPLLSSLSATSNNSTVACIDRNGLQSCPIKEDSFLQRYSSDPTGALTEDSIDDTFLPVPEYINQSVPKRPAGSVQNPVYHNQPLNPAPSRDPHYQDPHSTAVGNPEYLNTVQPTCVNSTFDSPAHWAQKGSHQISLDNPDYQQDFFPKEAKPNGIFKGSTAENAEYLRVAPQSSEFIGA
Experimental: (§1) (A) Chemical structure of 4524-E7. (B) Effect of 4524-E7 and other 1,4-naphthoquinone derivatives on IR phosphorylation in CHO-IR cells. CHO-IR cells were cultured in 96-well plates and treated with 5 μM compounds for 15 min at 37 C. Cells were lysed, and IR phosphorylations were tested by ELISA. The IR phosphorylation activities of the tested compounds were expressed as a percentage of the vehicle. (C) 4524-E7 and 1,4-naphthoquinone derivates activate IR and its downstream signaling in CHO-IR cells. […] The cell lysates were analyzed by immunoblotting with various indicated antibodies. The phosphorylated IR was immunoprecipitated using PY20 and analyzed by immunoblotting with anti-IR13 antibody. […] The phosphorylation of each receptor was determined by Western blot using specific antibodies as indicated. (E) 4524-E7 activates IR through its ICD. Upper panel: Diagram of chimaeric receptors. Lower panel: His-tagged wild-type IR, IGFR-IR, IR-IGFR, and IR-EGFR constructs were transfected into CHO cells followed vehicle or 5 μM 4524-E7 treatment for 30 min. Then the cells were lysated and the transfected receptor fused to His tag were pulled down with Ni+ beads, followed by western blot against anti-p-Tyr and anti-His. The cell lysates were tested with anti-p-Akt and anti-Akt.
(§2) The cDNA encoding wild type IR was introduced into the pcDNA3.1/V5-His-TOPO vector. […]

[3] = tested on: IGFR-IR hybrid; assay: as above; type: cell-based, human; details: 5 μM, 30 min
Experimental: as §1, §2

[4] = tested on: IR-IGFR; assay: as above; type: cell-based, human; details: 5 μM, 30 min
Experimental: as §1, §2

[5] = tested on: MCF7 cells; assay: Proliferation of MCF7 cells; type: cell-based
[6] = biological target: T2, GST-IRTK (Homo sapiens, UniProt P06213); assay: UV-absorption spectra titration; type: binding
T2 construct: GST-tagged IRTK (GST-IRTK, a.a. 1011-1382); purchased Invitrogen
T2 sequence (P06213 1011-1382): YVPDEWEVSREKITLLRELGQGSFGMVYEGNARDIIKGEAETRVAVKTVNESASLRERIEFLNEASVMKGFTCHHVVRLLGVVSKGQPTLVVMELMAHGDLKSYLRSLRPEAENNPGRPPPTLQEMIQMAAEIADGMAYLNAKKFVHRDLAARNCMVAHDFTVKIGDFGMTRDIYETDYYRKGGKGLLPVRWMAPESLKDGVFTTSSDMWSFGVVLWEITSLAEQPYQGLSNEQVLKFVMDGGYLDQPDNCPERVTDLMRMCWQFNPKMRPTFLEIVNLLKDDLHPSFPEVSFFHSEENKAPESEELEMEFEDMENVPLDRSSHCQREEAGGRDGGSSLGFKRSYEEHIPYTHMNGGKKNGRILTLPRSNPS
Experimental: UV-Vis absorption for protein binding was obtained using the Cary 300 UV-Visible spectrophotometer (Varian Inc., Palo Alto, Calif.) equipped with 1.0 cm quartz cells. The spectra were scanned from 200 to 800 nm in Tris buffer (0.01M Tris, 0.05M NaCl, 10 mM MgCl2, pH 7.8). During the spectrophotometric titrations, protein (GST or GST-IRTK) was added to a cell containing a constant amount of compound. The absorbances at 602 nm were recorded (data were read for three times and mean value was obtain by averaging) and the obtained data were processed with KaleidaGraph (Synergy Software). Repeated measurements were done for all the samples and no significant differences were observed (The reproducibility errors is less than 5%). Binding results from the UV titration experiments were fit with a one site interaction model: r=K*Cfree/(1+K*Cfree) Where r represents the moles of bound compound per mole of protein, K is macroscopic binding constants, and Cfree is the free compound concentration in equilibrium with the complex. Insulin Competition Assay
Several small molecules bind to the intracellular kinase domain of IR (IRTK) and provoke its activation. DDN might also interact with the IRTK to activate IR. To test this possibility, an UV-absorption spectra analysis was performed using recombinant IRTK. […]

MET, sequence (P08581 25-1390): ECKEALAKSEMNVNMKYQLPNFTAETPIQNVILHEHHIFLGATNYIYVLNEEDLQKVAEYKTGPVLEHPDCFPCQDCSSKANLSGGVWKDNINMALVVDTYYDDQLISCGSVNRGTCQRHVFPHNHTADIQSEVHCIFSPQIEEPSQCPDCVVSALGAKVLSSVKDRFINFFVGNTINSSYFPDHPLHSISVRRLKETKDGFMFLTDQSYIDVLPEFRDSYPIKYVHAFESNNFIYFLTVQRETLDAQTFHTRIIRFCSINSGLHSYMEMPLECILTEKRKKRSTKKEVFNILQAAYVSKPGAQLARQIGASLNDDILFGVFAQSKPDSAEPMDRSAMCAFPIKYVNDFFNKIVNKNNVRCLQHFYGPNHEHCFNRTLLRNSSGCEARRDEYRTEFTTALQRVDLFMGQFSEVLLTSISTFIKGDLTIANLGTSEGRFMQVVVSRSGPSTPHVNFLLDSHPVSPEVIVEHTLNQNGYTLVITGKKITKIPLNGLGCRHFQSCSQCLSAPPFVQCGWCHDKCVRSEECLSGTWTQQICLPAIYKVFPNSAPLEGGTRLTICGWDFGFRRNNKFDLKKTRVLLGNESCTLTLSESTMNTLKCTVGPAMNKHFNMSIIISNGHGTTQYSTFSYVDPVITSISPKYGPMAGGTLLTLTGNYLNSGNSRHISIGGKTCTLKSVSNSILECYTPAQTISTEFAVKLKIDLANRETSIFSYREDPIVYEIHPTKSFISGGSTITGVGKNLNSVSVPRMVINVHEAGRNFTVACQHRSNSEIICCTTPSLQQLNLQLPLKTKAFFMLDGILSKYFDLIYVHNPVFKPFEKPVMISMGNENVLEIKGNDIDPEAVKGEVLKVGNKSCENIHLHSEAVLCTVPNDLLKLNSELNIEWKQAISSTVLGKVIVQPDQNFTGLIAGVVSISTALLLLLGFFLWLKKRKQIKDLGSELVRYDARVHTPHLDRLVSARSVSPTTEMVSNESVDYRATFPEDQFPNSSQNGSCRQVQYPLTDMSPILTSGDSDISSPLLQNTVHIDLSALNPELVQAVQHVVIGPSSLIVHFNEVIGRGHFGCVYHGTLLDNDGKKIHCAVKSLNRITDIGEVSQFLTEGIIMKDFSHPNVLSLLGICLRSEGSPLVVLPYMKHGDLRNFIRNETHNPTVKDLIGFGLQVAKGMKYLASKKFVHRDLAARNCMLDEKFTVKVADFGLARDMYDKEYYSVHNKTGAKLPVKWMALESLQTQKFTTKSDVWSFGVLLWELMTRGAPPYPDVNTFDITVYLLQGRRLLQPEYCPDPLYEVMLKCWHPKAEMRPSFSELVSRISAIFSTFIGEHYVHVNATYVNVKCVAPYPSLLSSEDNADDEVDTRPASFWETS

Structure (SMILES)	inhibition of MET [1]	tyrosine phosphorylation of chimaeric receptor [2]	tyrosine phosphorylation of chimaeric receptor [3]	tyrosine phosphorylation of chimaeric receptor [4]	proliferation of MCF7 cells [5]	Kd ([6]; UV titration, absorbance at 602 nm, read-out: binding constant Kd) [µM]	peak absorption at 560 and 602 nm in presence of GST-IRTK ([6]; spectra 200 to 800 nm)
O=C1c2ccccc2C(=O)C2SC(Nc3ccc(Cl)cc3)=NC12 (stereo not shown) [4524-E7, 2-((4-chlorophenyl)amino)naphtho[2,3-d]thiazole-4,9(3aH,9aH)-dione]	slightly inhibited	not phosphorylated	selective tyrosine phosphorylation	not phosphorylated	not able to induce the proliferation of MCF7 cells	–	–
CC(=O)Oc1ccc(OC(C)=O)c2c1C(=O)C(Cl)=C(Cl)C2=O [DDN, 5,8-diacetyloxy-2,3-dichloro-1,4-naphthoquinone]	–	–	–	–	–	~3.27	enhanced the peak absorption at 560 and 602 nm
